# Data as given in US20100144733A1, “Compounds, compositions and methods comprising heteroaromatic derivatives” (Institute for OneWorld Health, priority 2008, published 2010).
# Legend:
# [1] = biological target: T1, CFTR (Homo sapiens, UniProt P13569); test: T84 assay (FLIPR membrane potential dye, forskolin/IBMX-stimulated CFTR channel activity); format: cell-based; settings: imidazole and triazole-containing compounds (Tables 13, 14, 14′), read-out: IC50 (μM) (T84 assay)
# T1 construct: endogenous in cells; host or cells: T84 human colonic cells (ECACC)
# T1 sequence (P13569 whole entry): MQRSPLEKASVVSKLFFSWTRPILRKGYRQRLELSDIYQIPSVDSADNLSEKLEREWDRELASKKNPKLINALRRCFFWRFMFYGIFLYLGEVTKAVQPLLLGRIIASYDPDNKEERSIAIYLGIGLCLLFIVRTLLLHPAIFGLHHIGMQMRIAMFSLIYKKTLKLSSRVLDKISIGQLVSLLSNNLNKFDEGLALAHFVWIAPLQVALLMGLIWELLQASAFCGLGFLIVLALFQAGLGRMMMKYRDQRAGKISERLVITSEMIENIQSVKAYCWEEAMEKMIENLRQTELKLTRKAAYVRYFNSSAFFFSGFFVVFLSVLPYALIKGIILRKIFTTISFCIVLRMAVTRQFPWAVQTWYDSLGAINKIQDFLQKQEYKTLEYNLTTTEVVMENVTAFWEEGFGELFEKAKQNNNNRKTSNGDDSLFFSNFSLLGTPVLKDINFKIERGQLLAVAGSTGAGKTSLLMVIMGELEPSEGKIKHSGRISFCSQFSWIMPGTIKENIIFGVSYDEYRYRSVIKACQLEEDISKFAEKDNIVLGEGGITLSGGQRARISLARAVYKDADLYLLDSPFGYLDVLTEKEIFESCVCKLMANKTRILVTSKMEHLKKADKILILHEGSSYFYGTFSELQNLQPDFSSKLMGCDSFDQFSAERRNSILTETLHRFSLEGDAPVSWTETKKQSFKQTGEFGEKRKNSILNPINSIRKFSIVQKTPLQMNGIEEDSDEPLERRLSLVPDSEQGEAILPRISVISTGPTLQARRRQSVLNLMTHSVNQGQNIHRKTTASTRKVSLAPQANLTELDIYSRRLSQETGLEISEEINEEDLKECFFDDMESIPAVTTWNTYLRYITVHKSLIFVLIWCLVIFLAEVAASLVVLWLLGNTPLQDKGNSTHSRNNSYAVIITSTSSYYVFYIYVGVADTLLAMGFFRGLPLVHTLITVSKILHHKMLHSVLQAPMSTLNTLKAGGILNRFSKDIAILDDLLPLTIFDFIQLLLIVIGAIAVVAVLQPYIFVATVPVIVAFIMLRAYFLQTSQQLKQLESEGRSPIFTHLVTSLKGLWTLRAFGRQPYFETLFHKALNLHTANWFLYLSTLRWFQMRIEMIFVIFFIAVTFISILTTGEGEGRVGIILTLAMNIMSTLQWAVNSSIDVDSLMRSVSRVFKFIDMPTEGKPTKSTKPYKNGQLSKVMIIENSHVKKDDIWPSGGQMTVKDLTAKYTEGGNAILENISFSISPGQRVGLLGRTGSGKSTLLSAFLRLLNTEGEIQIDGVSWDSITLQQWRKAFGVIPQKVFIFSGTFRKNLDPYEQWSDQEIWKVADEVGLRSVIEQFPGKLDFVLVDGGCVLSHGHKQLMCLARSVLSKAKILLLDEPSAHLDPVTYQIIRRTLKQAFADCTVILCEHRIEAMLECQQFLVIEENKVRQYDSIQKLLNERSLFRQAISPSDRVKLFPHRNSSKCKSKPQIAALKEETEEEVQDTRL
# How it was run: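 Fluorescence from a membrane potential dye in T84 monolayers (HBSS with 10 mM Hepes) is followed each second for 150 s. Cells are exposed to test compound during the 45 min dye loading, then challenged with forskolin (10 μM) and IBMX (100 μM) to open CFTR. Inhibitors suppress the depolarization-driven fluorescence increase.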
# [2] = biological target: T2, CHO-CFTR cell line (Homo sapiens, UniProt P13569); test: CHO-CFTR assay (FLIPR assay, same conditions as the T84 assay); format: cell-based; settings: imidazole and triazole-containing compounds
# T2 construct: expressed in transfected cells; host or cells: CHO (CHO-CFTR cell line)
# T2 sequence (P13569 whole entry): as above
Structure (SMILES),IC50 [1],IC50 [2]
"O=C(NCc1ccc(Cl)c(Cl)c1)c1ncn(-c2cc(Cl)c(O)c(Cl)c2)n1 [37i, 1-(3,5-dichloro-4-hydroxyphenyl)-N-(3,4-dichlorobenzyl)-1H-1,2,4-triazole-3-carboxamide]",2.67 µM,5.71 µM
"O=C(NCc1cc(C(F)(F)F)ccc1F)c1ncn(-c2cc(Cl)c(O)c(Cl)c2)n1 [40i, 1-(3,5-dichloro-4-hydroxyphenyl)-N-(2-fluoro-5-(trifluoromethyl)benzyl)-1H-1,2,4-triazole-3-carboxamide]",2.86 µM,28.6 µM
"O=C(NCC(c1ccccc1)c1ccccc1)c1ncn(-c2cc(Cl)c(O)c(Cl)c2)n1 [44i, 1-(3,5-dichloro-4-hydroxyphenyl)-N-(2,2-diphenylethyl)-1H-1,2,4-triazole-3-carboxamide]",2.8 µM,23.2 µM
"O=C(NCc1ccc(Oc2ccccc2)cc1)c1ncn(-c2cc(Cl)c(O)c(Cl)c2)n1 [49i, 1-(3,5-dichloro-4-hydroxyphenyl)-N-(4-phenoxybenzyl)-1H-1,2,4-triazole-3-carboxamide]",1.57 µM,0.45 µM
"CC(C)(C)C(=O)CN(Cc1ccc(C(C)(C)C)cc1)C(=O)c1ncn(-c2cc(Cl)c(O)c(Cl)c2)n1 [50i, N-(4-tert-butylbenzyl)-1-(3,5-dichloro-4-hydroxyphenyl)-N-(3,3-dimethyl-2-oxobutyl)-1H-1,2,4-triazole-3-carboxamide]",1.16 µM,18.5 µM
"C=CCN(Cc1ccc(C(C)(C)C)cc1)C(=O)c1ncn(-c2cc(Cl)c(O)c(Cl)c2)n1 [51i, N-allyl-N-(4-tert-butylbenzyl)-1-(3,5-dichloro-4-hydroxyphenyl)-1H-1,2,4-triazole-3-carboxamide]",0.63 µM,5.13 µM
"Oc1c(Cl)cc(-n2cnc(C(O)(c3cc(F)cc(F)c3)c3cc(F)cc(F)c3)n2)cc1Cl [52i, 4-(3-(Bis(3,5-difluorophenyl)(hydroxy)methyl)-1H-1,2,4-triazol-1-yl)-2,6-dichlorophenol]",13.6 µM,7.8 µM
"Oc1c(Cl)cc(-n2cnc(C(O)(c3cccc(Cl)c3)c3cccc(Cl)c3)n2)cc1Cl [53i, 4-(3-(bis(3-chlorophenyl)(hydroxy)methyl)-1H-1,2,4-triazol-1-yl)-2,6-dichlorophenol]",13 µM,4.27 µM
"Oc1c(Cl)cc(-n2cnc(C(O)(c3cccc(F)c3)c3cccc(F)c3)n2)cc1Cl [54i, 4-(3-(bis(3-fluorophenyl)(hydroxy)methyl)-1H-1,2,4-triazol-1-yl)-2,6-dichlorophenol]",22.9 µM,22.7 µM
"Oc1c(Cl)cc(-n2cnc(C(O)(c3ccc(F)c(F)c3)c3ccc(F)c(F)c3)n2)cc1Cl [55i, 4-(3-(bis(3,4-difluorophenyl)(hydroxy)methyl)-1H-1,2,4-triazol-1-yl)-2,6-dichlorophenol]",17.2 µM,6.94 µM
"Oc1c(Cl)cc(-n2cnc(C(O)(Cc3ccc(F)cc3)Cc3ccc(F)cc3)n2)cc1Cl [56i, 4-(3-(1,3-bis(4-fluorophenyl)-2-hydroxypropan-2-yl)-1H-1,2,4-triazol-1-yl)-2,6-dichlorophenol]",20.4 µM,25.5 µM
"Oc1c(Cl)cc(-n2cnc(C(O)(c3cc(F)cc(Cl)c3)c3cc(F)cc(Cl)c3)n2)cc1Cl [57i, 4-(3-(bis(3-chloro-5-fluorophenyl)(hydroxy)methyl)-1H-1,2,4-triazol-1-yl)-2,6-dichlorophenol]",14.7 µM,3.88 µM
"CC(C)(C)c1ccc(C(O)(c2ccc(C(C)(C)C)cc2)c2ncn(-c3cc(Cl)c(O)c(Cl)c3)n2)cc1 [58i, 4-(3-(bis(4-tert-butylphenyl)(hydroxy)methyl)-1H-1,2,4-triazol-1-yl)-2,6-dichlorophenol]",11.3 µM,17 µM
"Oc1c(Cl)cc(-n2cnc(C(O)(Cc3ccccc3F)Cc3ccccc3F)n2)cc1Cl [59i, 4-(3-(1,3-bis(2-fluorophenyl)-2-hydroxypropan-2-yl)-1H-1,2,4-triazol-1-yl)-2,6-dichlorophenol]",21.1 µM,5.45 µM
"CC(C)(C)CCN(Cc1ccccc1)C(=O)c1ncn(-c2cc(Cl)c(O)c(Cl)c2)n1 [60i, N-Benzyl-1-(3,5-dichloro-4-hydroxyphenyl)-N-(3,3-dimethylbutyl)-1H-1,2,4-triazole-3-carboxamide]",16.2 µM,5.45 µM
"CN(C)c1ccc(Oc2ccc(CNC(=O)c3ncn(-c4cc(Cl)c(O)c(Cl)c4)n3)cc2)cc1 [63i, 1-(3,5-dichloro-4-hydroxyphenyl)-N-(4-(4-(dimethylamino)phenoxy)benzyl)-1H-1,2,4-triazole-3-carboxamide]",3.02 µM,6.72 µM
"O=C(NCc1ccc(Oc2cc(F)c(F)c(F)c2)cc1)c1ncn(-c2cc(Cl)c(O)c(Cl)c2)n1 [65i, 1-(3,5-dichloro-4-hydroxyphenyl)-N-(4-(3,4,5-trifluorophenoxy)benzyl)-1H-1,2,4-triazole-3-carboxamide]",5.83 µM,0.86 µM
"O=C(NCc1ccc(Oc2ccc(OC(F)(F)F)cc2)cc1)c1ncn(-c2cc(Cl)c(O)c(Cl)c2)n1 [66i, 1-(3,5-dichloro-4-hydroxyphenyl)-N-(4-(4-(trifluoromethoxy)phenoxy)benzyl)-1H-1,2,4-triazole-3-carboxamide]",3.2 µM,11.3 µM
"O=C(NCc1ccc(Oc2ccc(F)c(C(F)(F)F)c2)cc1)c1ncn(-c2cc(Cl)c(O)c(Cl)c2)n1 [67i, 1-(3,5-dichloro-4-hydroxyphenyl)-N-(4-(4-fluoro-3-(trifluoromethyl)phenoxy)benzyl)-1H-1,2,4-triazole-3-carboxamide]",6.4 µM,14.7 µM
"CC(C)(C)c1ccc(Oc2ccc(CNC(=O)c3ncn(-c4cc(Cl)c(O)c(Cl)c4)n3)cc2)cc1 [68i, N-(4-(4-tert-butylphenoxy)benzyl)-1-(3,5-dichloro-4-hydroxyphenyl)-1H-1,2,4-triazole-3-carboxamide]",5.34 µM,19.1 µM
"O=C(NCc1ccc(Oc2cccc(N3CCCC3)c2)cc1)c1ncn(-c2cc(Cl)c(O)c(Cl)c2)n1 [69i, 1-(3,5-dichloro-4-hydroxyphenyl)-N-(4-(3-(pyrrolidin-1-yl)phenoxy)benzyl)-1H-1,2,4-triazole-3-carboxamide]",4.3 µM,5.99 µM
"O=C(NCc1ccc(Oc2ccc(Cl)c(C(F)(F)F)c2)cc1)c1ncn(-c2cc(Cl)c(O)c(Cl)c2)n1 [70i, N-(4-(4-chloro-3-(trifluoromethyl)phenoxy)benzyl)-1-(3,5-dichloro-4-hydroxyphenyl)-1H-1,2,4-triazole-3-carboxamide]",4.72 µM,19.4 µM
"O=C(NCc1ccc(Oc2ccc(OCc3ccccc3)c(F)c2)cc1)c1ncn(-c2cc(Cl)c(O)c(Cl)c2)n1 [71i, N-(4-(4-(benzyloxy)-3-fluorophenoxy)benzyl)-1-(3,5-dichloro-4-hydroxyphenyl)-1H-1,2,4-triazole-3-carboxamide]",8.06 µM,31 µM
"O=C(NCc1ccc(Oc2ccc(OCc3ccccc3)c(Cl)c2)cc1)c1ncn(-c2cc(Cl)c(O)c(Cl)c2)n1 [72i, N-(4-(4-(benzyloxy)-3-chlorophenoxy)benzyl)-1-(3,5-dichloro-4-hydroxyphenyl)-1H-1,2,4-triazole-3-carboxamide]",7.6 µM,12.3 µM
O=C(NCc1ccc(Oc2cc(Cl)c(OCc3ccccc3)c(Cl)c2)cc1)c1ncn(-c2cc(Cl)c(O)c(Cl)c2)n1 [73i],30.7 µM,17 µM
